For series [1] the following is noted: chronic; duration: 128 days; other.
Another series deals with Apis mellifera. As to conditions: acute, mortality.
Another series concerns Bibionidae. As to conditions: chronic/long-term.
Another series concerns Canidae. As to conditions: chronic; duration: 2 years; Dog Other; histopathology: nonneoplastic.
The test system of the next series is Danio rerio. The following applies: chronic.
Another series relates to Daphnia magna. The following applies: chronic/long-term; duration: 21 days; reproduction.
Another series deals with Folsomia candida. The following applies: chronic/long-term; mortality.
The next series deals with Oncorhynchus mykiss. The following applies: acute; duration: 96 hours; mortality.
Another series deals with Oryctolagus sp. As to conditions: developmental; development.
A further series has as its system Pimephales promelas. As to conditions: chronic/long-term; reproduction.
A further series concerns Tagia sp. The following applies: chronic/long-term; growth.
The test system of another series is Aphidius rhopalosiphi. In words: LR50; higher = less toxic. As to conditions: not reported; mortality.

Values after ≈ are worked out from the molar mass of the structure shown. A value given as a limit tells only on which side of the number the result lay.

For orientation: NOAEL means the highest tested level that showed no adverse finding. Usually LC50 stands for the concentration that kills 50% of the test population.

As for `CCC(CC)Nc1c([N+](=O)[O-])cc(C)c(C)c1[N+](=O)[O-]` [Pendimethalin], the NOEC in [1] amounted to 0.00023 mg/L; with Bibionidae (duration: 28 days), 227 mg/kg; with Bibionidae (duration: 30 days), 0.082 mg/L; in the series with Danio rerio, 0.032 mg/L; with Daphnia magna it was 0.0145 mg/L; with Folsomia candida, 193 mg/kg. In addition, the NOEC came out at 0.0063 mg/L in the series with Pimephales promelas and 33.5 mg/kg in the series with Tagia sp.. For the same compound, the LD50 in the series with Anas platyrhynchos (acute, oral, unspecified, mortality) was 1420 mg/kg-day; with Apis mellifera (dermal) it was greater than 100 µg/piece; with Apis mellifera (oral, unspecified), greater than 101 µg/piece; in the series with Rattus norvegicus (acute, mortality), 3930 mg/kg-day. The same compound displayed an NOEL with Anas platyrhynchos (reproductive) of 17.5 mg/kg-day. Further, the no observed adverse effect level (NOAEL) in the series with Canidae is 12.5 mg/kg-day; in the series with Oryctolagus sp., 30 mg/kg-day; with Rattus norvegicus (reproduction developmental, body weight), 30 mg/kg-day. The compound also gave an LC50 with Oncorhynchus mykiss of 0.196 µg/mL (≈ 0.697 µM). Further, in the series with Aphidius rhopalosiphi, the LR50 is 1200 g/ha.
